According to patent US10525100B2, “ATF5 peptide variants and uses thereof” (Sapience Therapeutics, Inc., priority 2018, dated 2020):
Ends that are not written are not given here.

Legend:
[1] = tested on: wide range of tumor cell types; test: Cytotoxic activity in various human cancer cell lines; type: cell-based; conditions: in words; FIGS. 6A-6E, 7A-7E
Description: ST-13 was further examined in various human cancer cell lines, as was a second retro-inverso variant, ST-14. Suspension cells (HL60, AML14, or SET2) were set at a density of 3.5×10^3 cells/well in 150 μL of RPMI+1.5% fetal bovine serum (FBS) in a tissue culture-treated 96 well dish. ATF5 peptide, reconstituted at a concentration of 10 mg/mL in 20 mM His, pH 7.5, was added to each well at a volume of 50 μL to a final concentration range of 0-80 μM. Cells were incubated with peptide for 48 hours at 37° C. Cell viability was quantified by flow cytometry using an Abcam Annexin V FITC apoptosis detection kit. […] Cells were analyzed by BD Accuri C6 Plus flow cytometer to detect Annexin V-FITC binding (Ex=488 nm; Em=530 nm) using FITC signal detector, and to detect PI staining using the phycoerythrin emission signal detector. Percentage of Annexin V^low and PI^low were quantified and presented as % Viability. EC50 values were calculated using GraphPad Prism v.7 XML. […] Cell viability was determined as described above for suspension cells or by MTT assay (MCF7 cells). Alternatively, cells were gently removed from the cell culture plate following trypsinization with 2.5% trypsin, and cell viability was quantified by flow cytometry using an Abcam Annexin V FITC apoptosis detection kit, as described above.

[2] = tested on: A375 cells; type: cell-based, human
Description: (§1) Additionally, adherent A375, MCF7, U251, DU145, U87, and A549 cells were set at a density of 3.5×10^3 cells/well in 200 μL of media on day −1. On day 0, media was removed and replenished with 150 μL of fresh media, and cells were treated with ATF5 peptide as described. Following a 48-hour incubation at 37° C., floating cells were collected, adherent cells were washed with Dulbecco's Phosphate Buffered Saline (DPBS), dissociated from the dish with 50 μL 2.5% trypsin at RT, and combined with floating cells. Cell viability was determined as described above for suspension cells or by MTT assay (MCF7 cells). Alternatively, cells were gently removed from the cell culture plate following trypsinization with 2.5% trypsin, and cell viability was quantified by flow cytometry using an Abcam Annexin V FITC apoptosis detection kit, as described above.

[3] = tested on: HL60 cells; test: HL60 cell viability assay (Annexin V FITC / PI flow cytometry); type: cell-based, human; conditions: for EC50: 48 h; for cytotoxic activity compared with another peptide: HL60 cell viability, FIGS. 2-5, in words
Description: HL60 PML suspension cells were set at a density of 3.5×10^3 cells/well in 150 μL of RPMI+1.5% fetal bovine serum (FBS) in a 96 well dish. ST-3, reconstituted at a concentration of 10 mg/mL in 20 mM His, pH 7.5, was added to each well at a volume of 50 μL to a final concentration range of 0-80 μM. Cells were incubated with ST-3 for 48 hours at 37° C. Cell viability was quantified by flow cytometry using an Abcam Annexin V FITC apoptosis detection kit. Briefly, cells were washed with PBS and resuspended in 1× assay buffer containing Annexin V FITC and propidium iodide (PI). Annexin V detects apoptotic cells, and PI stains dead cells. After staining, apoptotic cells show green fluorescence, dead cells show red and green fluorescence, and live cells show little or no fluorescence. Cells were selected for analysis based on forward scatter (FSC) vs. side scatter (SSC), and analyzed by BD Accuri C6 Plus flow cytometer to detect Annexin V-FITC binding (Ex=488 nm; Em=530 nm) using FITC signal detector and PI staining by the phycoerythrin emission signal detector. Percentage of Annexin V^low and PI^low were quantified and presented as % Viability.
Lyophilized ST-3 or ST-3 with glycine (ST-4) or alanine (ST-5) substituted for cysteine at amino acid position 21 was freshly reconstituted in histidine buffer to a stock solution of 5 mg/mL and added to cells at a final concentration range of 0-40 μM. Cells were incubated with ATF5 peptide for 48 hours prior to quantification of cell viability.
(§2) ST-13 was further examined in various human cancer cell lines, as was a second retro-inverso variant, ST-14. Suspension cells (HL60, AML14, or SET2) were set at a density of 3.5×10^3 cells/well in 150 μL of RPMI+1.5% fetal bovine serum (FBS) in a tissue culture-treated 96 well dish. ATF5 peptide, reconstituted at a concentration of 10 mg/mL in 20 mM His, pH 7.5, was added to each well at a volume of 50 μL to a final concentration range of 0-80 μM. Cells were incubated with peptide for 48 hours at 37° C. Cell viability was quantified by flow cytometry using an Abcam Annexin V FITC apoptosis detection kit. Briefly, cells were washed with PBS and resuspended in 1× assay buffer containing Annexin V FITC and propidium iodide (PI). Cells were analyzed by BD Accuri C6 Plus flow cytometer to detect Annexin V-FITC binding (Ex=488 nm; Em=530 nm) using FITC signal detector, and to detect PI staining using the phycoerythrin emission signal detector. Percentage of Annexin V^low and PI^low were quantified and presented as % Viability. EC50 values were calculated using GraphPad Prism v.7 XML.

[4] = tested on: SET2 cells; type: cell-based, human
Description: as §2

[5] = tested on: AML14 cells; type: cell-based, human
Description: as §2

[6] = tested on: MCF7 cells; type: cell-based, human
Description: as §1

Molecule | EC50 [3] [µM] | cytotoxic activity compared with another peptide [3] | further results
CC[C@@H](C)[C@@H](NC(=O)[C@@H](CCCCN)NC(=O)[C@H](NC(=O)[C@@H](Cc1c[nH]c2ccccc12)NC(=O)[C@@H](Cc1ccccc1)NC(=O)[C@@H](CCC(N)=O)NC(=O)[C@@H](CC(N)=O)NC(=O)[C@@H](CCCNC(=N)N)NC(=O)[C@@H](CCCNC(=N)N)NC(=O)[C@@H](CCSC)NC(=O)[C@@H](CCCCN)NC(=O)[C@@H](Cc1c[nH]c2ccccc12)NC(=O)[C@@H](CCCCN)NC(=O)[C@@H](CCCCN)NC(=O)[C@@H](CC(C)C)NC(=O)[C@@H](CCC(=O)O)NC(=O)CNC(=O)[C@@H](CCCNC(=N)N)NC(=O)[C@@H](C)NC(=O)[C@@H](CCC(N)=O)NC(=O)CNC(=O)[C@@H](CC(C)C)NC(=O)[C@@H](CCCNC(=N)N)NC(=O)[C@@H](C)NC(=O)[C@@H](CCC(=O)O)NC(=O)[C@@H](CC(C)C)NC(=O)[C@@H](CCCNC(=N)N)NC(=O)[C@@H](CCC(=O)O)NC(=O)[C@@H](CC(C)C)NC(=O)[C@@H](CCC(=O)O)NC(=O)[C@@H](CCC(=O)O)NC(=O)[C@@H](CCCNC(=N)N)NC(=O)[C@@H](C)NC(=O)[C@@H](CCC(=O)O)NC(=O)[C@@H](C)NC(=O)[C@H](N)C(C)C)[C@H](C)CC)C(=O)N[C@H](CCC(N)=O)C(=O)N[C@H](CCCNC(=N)N)C(=O)O [ST-13] | 4.8 | – | cytotoxic activity in tumor cell types [1]: significant cytotoxic activity; EC50 [2]: 1.4 µM
RQIKIWFQNRRMKWKKLEGEAQGLEARNRELKERAESV [ST-5] | ~38 | attenuated but not ablated | –
RQIKIWFQNRRMKWKKLEGECQGLEARNRELKERAEAV [ST-6] | 11.2 | comparable activity to ST-3 | –
RQIKIWFQNRRMKWKKLEGECQGLEARNRELKERAESV [ST-3, reference compound] | – | – | EC50 [4]: 98.2 µM; EC50 [5]: 29.6 µM; EC50 [6]: 52.9 µM; EC50 [2]: 21.8 µM
RQIKIWFQNRRMKWKKLEGEGQGLEARNRELKERAESV [ST-4] | ~35 | attenuated but not ablated | –
RQIKIWFQNRRMKWKKLEGRAQGLRAELRELEERAEAV [ST-11] | 4.2 | improved cytotoxic activity over ST-3 | –
RQIKIWFQNRRMKWKKLEGRCQGLRAELRELEERAEAV [ST-10] | 2.2 | comparable to that of ST-9 | –
RQIKIWFQNRRMKWKKLEGRCQGLRAENRELEERAESV [ST-9] | 2 | significantly increased over that of ST-3 | –
